Here are results for 36 compounds from ChEMBL document CHEMBL1138133, “6-Acylamino-2-amino-4-methylquinolines as potent melanin-concentrating hormone 1 receptor antagonists: structure-activity exploration of eastern and western parts” (Bioorg Med Chem Lett, 2006).

The target in assay [1] is T1, Melanin-concentrating hormone receptor 1 (Homo sapiens, UniProt Q99705). Put plainly: Inhibition of human MCH1 receptor by SPA assay.
The target of assay [2] is T1, Melanin-concentrating hormone receptor 1. Put plainly: Displacement of [125I]MCH from human MCH1 receptor expressed in CHO cell by WC assay. The class given is cell-based. (Loss of bound radioactivity is the signal in a displacement assay; it reports binding, not function.)
For assay [3] the target is unchanged. Put plainly: […] human MCH1 receptor expressed in CHO cell by IP3 assay. The class given is cell-based.

T1 sequence (Q99705 whole entry): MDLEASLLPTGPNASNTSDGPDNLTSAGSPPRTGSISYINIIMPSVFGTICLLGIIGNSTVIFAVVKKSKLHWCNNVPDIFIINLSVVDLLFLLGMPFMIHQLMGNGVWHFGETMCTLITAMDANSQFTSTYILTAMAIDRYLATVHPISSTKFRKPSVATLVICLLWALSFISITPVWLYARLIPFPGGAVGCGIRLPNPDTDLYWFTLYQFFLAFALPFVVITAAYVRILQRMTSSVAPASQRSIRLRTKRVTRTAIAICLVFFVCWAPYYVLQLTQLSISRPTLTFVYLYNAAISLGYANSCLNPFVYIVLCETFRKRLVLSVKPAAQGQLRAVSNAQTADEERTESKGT

For the compound `Cc1cc(N(C)CCN(C)C)nc2ccc(NC(=O)Cc3ccc(-c4ccccc4)cc3)cc12`, the IC50 in assay [1] was 3280 nM.
For `Cc1cc(NCCN(C)C)nc2ccc(NC(=O)COc3ccc(OC(F)(F)F)cc3)cc12`, the IC50 in assay [1] was 18 nM; in assay [2], 5.3 nM.
Regarding `Cc1cc(N(C)CCN(C)C)nc2ccc(NC(=O)c3cc4ccccc4s3)cc12`, the IC50 in assay [1] was found to be 2100 nM.
For `Cc1cc(N2CCN(CCO)CC2)nc2ccc(NC(=O)COc3ccc(OC(F)(F)F)cc3)cc12`, the IC50 came out at 5 nM in assay [1] and 1.7 nM in assay [2].
Regarding `Cc1cc(NC2CCN(Cc3ccccc3)CC2)nc2ccc(NC(=O)COc3ccc(OC(F)(F)F)cc3)cc12`, the results for the IC50 in assay [1], in assay [2] and in assay [3] were 40 nM, 13 nM and 91 nM, respectively.
Take `Cc1cc(NCC(C)(C)CN(C)C)nc2ccc(NC(=O)COc3ccc(OC(F)(F)F)cc3)cc12`: the half-inhibitory concentration (IC50) in assay [1] was 16 nM; in assay [2], 4.7 nM.
For the compound `Cc1cc(N2C[C@@H](C)N[C@@H](C)C2)nc2ccc(NC(=O)COc3ccc(OC(F)(F)F)cc3)cc12`, the IC50 in assay [1] was determined as 87 nM; in assay [2], 44 nM.
Regarding `Cc1cc(N2CCN[C@H](C)C2)nc2ccc(NC(=O)COc3ccc(OC(F)(F)F)cc3)cc12`, the values for the IC50 in assay [1], in assay [2] and in assay [3] were 18 nM, 4.1 nM and 100 nM, respectively.
`Cc1cc(NCCN(C(C)C)C(C)C)nc2ccc(NC(=O)COc3ccc(OC(F)(F)F)cc3)cc12`: in assay [2], the IC50 is 7.1 nM.
On to `Cc1cc(N(C)CCN(C)C)nc2ccc(NC(=O)c3ccc(-c4ccccc4)cc3)cc12`, for which the IC50 in assay [1] was found to be 42 nM; in assay [2], 5.7 nM; in assay [3] it was 25 nM.
In turn, `Cc1cc(N(C)CCN(C)C)nc2ccc(NC(=O)/C=C/c3ccccc3)cc12` displayed an IC50 in assay [1] of 6970 nM.
For the compound `Cc1cc(N(C)CCN(C)C)nc2ccc(NC(=O)CCc3nc(-c4ccccc4)c(-c4ccccc4)o3)cc12`, the IC50 in assay [1] is 162 nM.
On to `Cc1ccc(/C=C/C(=O)Nc2ccc3nc(N(C)CCN(C)C)cc(C)c3c2)cc1`, for which the IC50 in assay [1] came out at 48 nM; in assay [2] it was 17 nM; in assay [3] it was 478 nM.
With `Cc1cc(N(C)CCN(C)C)nc2ccc(NC(=O)CCc3ccccc3)cc12`, in assay [1], the half-inhibitory concentration (IC50) was greater than 10000 nM.
On to `Cc1cc(N2C[C@@H](C)NC[C@@H]2C)nc2ccc(NC(=O)COc3ccc(OC(F)(F)F)cc3)cc12` (racemic), for which the IC50 in assay [1] was 20 nM; in assay [2], 3.4 nM.
The compound `Cc1cc(N2CCCNCC2)nc2ccc(NC(=O)COc3ccc(OC(F)(F)F)cc3)cc12` registered a half-inhibitory concentration (IC50) in assay [2] of 2 nM.
On to `Cc1cc(NCCN2CCOCC2)nc2ccc(NC(=O)COc3ccc(OC(F)(F)F)cc3)cc12`, for which the IC50 in assay [1] came to 9.6 nM; in assay [2], 1.3 nM.
Turning to `Cc1cc(NCCN2CCCCC2)nc2ccc(NC(=O)COc3ccc(OC(F)(F)F)cc3)cc12`, the IC50 in assay [1] came out at 5.3 nM; in assay [2], 0.91 nM; in assay [3] it was 33 nM.
On the same counts, the results for `Cc1cc(N(C)CCN(C)C)nc2ccc(NC(=O)COc3ccc(Cl)cc3)cc12` are 83 nM, 33 nM and 807 nM.
For `Cc1cc(N(C)CCN(C)C)nc2ccc(NC(=O)C3CC3c3ccccc3)cc12` (racemic), the IC50 in assay [1] is greater than 10000 nM.
Consider `Cc1cc(N2CCCN(C)CC2)nc2ccc(NC(=O)COc3ccc(OC(F)(F)F)cc3)cc12`, for which the figures for the IC50 in assay [1], in assay [2] and in assay [3] were 20 nM, 3.7 nM and 244 nM, respectively.
With `Cc1cc(N(C)CCN(C)C)nc2ccc(NC(=O)C3CCC(c4ccc(Cl)cc4)CC3)cc12` (stereo not drawn), the values for the half-inhibitory concentration (IC50) in assay [1], in assay [2] and in assay [3] were 423 nM, 23 nM and 393 nM, respectively.
In assay [1], `Cc1cc(N(C)CCN(C)C)nc2ccc(NC(=O)c3ccc(Oc4ccccc4)nc3)cc12` had an IC50 of 105 nM.
With `CCN(CC)CCNc1cc(C)c2cc(NC(=O)COc3ccc(OC(F)(F)F)cc3)ccc2n1`, the IC50 in assay [1] came out at 15 nM; in assay [2], 3.2 nM.
With `Cc1cc(N(C)CCN(C)C)nc2ccc(NC(=O)/C=C/c3ccccc3Cl)cc12`, the IC50 in assay [1] was 2540 nM.
`Cc1oc(-c2ccccc2)nc1CC(=O)Nc1ccc2nc(N(C)CCN(C)C)cc(C)c2c1` displayed an IC50 in assay [1] of 568 nM. Against the preceding compound, the IC50 is about 4.5-fold lower.
Take `Cc1cc(N(C)CCN(C)C)nc2ccc(NC(=O)CCc3ccc(OC(F)(F)F)cc3)cc12`: the figures for the IC50 in assay [1] and in assay [2] were 40 nM and 14 nM, respectively.
As for `Cc1cc(N(C)CCN(C)C)nc2ccc(NC(=O)COc3ccc(OC(F)(F)F)cc3)cc12`, the values for the IC50 in assay [1], in assay [2] and in assay [3] were 18 nM, 2.3 nM and 31 nM, respectively.
As for `Cc1cc(N(C)CCN(C)C)nc2ccc(NC(=O)c3ccc(OC(F)(F)F)cc3)cc12`, in assay [1], half-maximal inhibition (IC50) required 2760 nM.
Compound `C/C(=C\c1ccccc1)C(=O)Nc1ccc2nc(N(C)CCN(C)C)cc(C)c2c1` came in with an IC50 in assay [1] of 9460 nM.
Turning to `Cc1cc(N(C)CCN(C)C)nc2ccc(NC(=O)COc3ccccc3)cc12`, the IC50 in assay [1] is greater than 10000 nM.
Compound `Cc1cc(N(C)CCN(C)C)nc2ccc(NC(=O)c3ccc(-c4ccc(C(F)(F)F)cc4)cc3)cc12` came in with an IC50 in assay [2] of 10 nM.
Take `Cc1cc(N(C)CCN(C)C)nc2ccc(NC(=O)NCc3ccc(Br)cc3)cc12`: it took 271 nM to reach half-maximal inhibition in assay [1] (IC50).
Take `Cc1cc(N(C)CCN(C)C)nc2ccc(NC(=O)CNc3ccc(Cl)cc3Cl)cc12`: the IC50 in assay [1] is 125 nM.
In assay [1], `Cc1cc(N(C)CCN(C)C)nc2ccc(NC(=O)c3ccc(Oc4ccccc4)cc3)cc12` registered a half-inhibitory concentration (IC50) of 210 nM.
As to `Cc1cc(N2CCN[C@@H](C)C2)nc2ccc(NC(=O)COc3ccc(OC(F)(F)F)cc3)cc12`, the IC50 turned out to be 13 nM in assay [1] and 3.7 nM in assay [2].

What is called IC50 is the concentration needed to halve the response being measured.
